Reference: paper PMC10974149, “Acheta domesticus: A Natural Source of Anti-Skin-Aging Ingredients for Cosmetic Applications” (Pharmaceuticals, 2024)
≈ marks a conversion by molar mass, not a printed value.

Biological target: T1, collagenase from Clostridium histolyticum
T1 construct: gene colG
Experiment: spectrophotometric collagenase inhibition assay
Format: biochemical
Conditions: positive control; substrate not stated in the assay section (FALGPA among reagents)
Text: spectrophotometric collagenase inhibition assay on collagenase from Clostridium histolyticum

CC1(C)CC[C@]2(C(=O)O)CC[C@]3(C)C(=CC[C@@H]4[C@@]5(C)CC[C@H](O)C(C)(C)[C@@H]5CC[C@]43C)[C@@H]2C1 [OA, Oleanolic acid]
IC50 (μg/mL) / Collagenase Inhibition: 3 ± 1 µg/mL (≈ 6.57 µM)
